Measurements published in US10752637B2, “Bis-diox(ol)ane compounds” (Koninklijke Coöperatie Cosun U.A., priority 2016, dated 2020).
≈ marks a conversion by molar mass, not a printed value.

Assay: water-solubility of the product

## CC1(C)OC(C2OC(C)(C)O[C@H]2C(=O)NCCO)[C@@H](C(=O)NCCO)O1 (some centres unmarked) [GalX-di-ethanolamide]
In water, at ambient temperature
  water-solubility: approximately 25 wt. %
water
  solubility: ~350 mg/mL (≈ 930 mM)
